{
  "source": "the supplement of paper PMC9663587",
  "assay_in_all_cases": "increase in dead-cell fraction, 72 h; higher = more death;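 note: breast cancer cell lines in 384-well plates, stained with Hoechst plus LIVE/DEAD far red dye and imaged, cells above an LDR intensity threshold counted dead, Hoechst-negative corpses included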",
  "key": {"Neratinib/HKI272": {"compound": "CCOc1cc2ncc(C#N)c(Nc3ccc(OCc4ccccn4)c(Cl)c3)c2cc1NC(=O)/C=C/CN(C)C [Neratinib/HKI272]"}, "[1]": {"compound": "CCc1cnn2c(NCc3ccc[n+]([O-])c3)cc(N3CCCC[C@H]3CCO)nc12"}, "LEE011/Ribociclib": {"compound": "CN(C)C(=O)c1cc2cnc(Nc3ccc(N4CCNCC4)cn3)nc2n1C1CCCC1 [LEE011/Ribociclib]"}, "THZ531": {"compound": "CN(C)C/C=C/C(=O)Nc1ccc(C(=O)N2CCC[C@@H](Nc3ncc(Cl)c(-c4c[nH]c5ccccc45)n3)C2)cc1 [THZ531]"}, "THZ1": {"compound": "CN(C)C/C=C/C(=O)Nc1ccc(C(=O)Nc2cccc(Nc3ncc(Cl)c(-c4c[nH]c5ccccc45)n3)c2)cc1 [THZ1]"}, "Flavopiridol": {"compound": "CN1CC[C@H](c2c(O)cc(O)c3c(=O)cc(-c4ccccc4Cl)oc23)[C@H](O)C1 [Flavopiridol]"}},
  "data": [
    {"cell line": "SUM52PE", "values": [
      {"measurement": "increase in dead-cell fraction", "setting": "Neratinib/HKI272; 0.3162 µM", "result": 0.0005},
      {"measurement": "increase in dead-cell fraction", "setting": "Neratinib/HKI272; 1 µM", "result": 0.0053},
      {"measurement": "increase in dead-cell fraction", "setting": "Neratinib/HKI272; 3.162 µM", "result": 0.0166},
      {"measurement": "increase in dead-cell fraction", "setting": "[1]; 0.0001 µM", "result": 0.0037},
      {"measurement": "increase in dead-cell fraction", "setting": "[1]; 0.0003162 µM", "result": 0.0003},
      {"measurement": "increase in dead-cell fraction", "setting": "[1]; 0.001 µM", "result": 0.0018},
      {"measurement": "increase in dead-cell fraction", "setting": "[1]; 0.003162 µM", "result": 0.0012},
      {"measurement": "increase in dead-cell fraction", "setting": "[1]; 0.01 µM", "result": 0.006},
      {"measurement": "increase in dead-cell fraction", "setting": "[1]; 0.03162 µM", "result": 0.101},
      {"measurement": "increase in dead-cell fraction", "setting": "[1]; 0.1 µM", "result": 0.333},
      {"measurement": "increase in dead-cell fraction", "setting": "[1]; 0.3162 µM", "result": 0.419},
      {"measurement": "increase in dead-cell fraction", "setting": "[1]; 1 µM", "result": 0.155},
      {"measurement": "increase in dead-cell fraction", "setting": "LEE011/Ribociclib; 0.001 µM", "result": 0.0005},
      {"measurement": "increase in dead-cell fraction", "setting": "LEE011/Ribociclib; 0.003162 µM", "result": 0.0031},
      {"measurement": "increase in dead-cell fraction", "setting": "LEE011/Ribociclib; 0.01 µM", "result": -0.0001},
      {"measurement": "increase in dead-cell fraction", "setting": "LEE011/Ribociclib; 0.03162 µM", "result": 0.0002},
      {"measurement": "increase in dead-cell fraction", "setting": "LEE011/Ribociclib; 0.1 µM", "result": -0.0001},
      {"measurement": "increase in dead-cell fraction", "setting": "LEE011/Ribociclib; 0.3162 µM", "result": 0.0042},
      {"measurement": "increase in dead-cell fraction", "setting": "LEE011/Ribociclib; 1 µM", "result": 0.0047},
      {"measurement": "increase in dead-cell fraction", "setting": "LEE011/Ribociclib; 3.162 µM", "result": 0.0047},
      {"measurement": "increase in dead-cell fraction", "setting": "LEE011/Ribociclib; 10 µM", "result": 0.0071},
      {"measurement": "increase in dead-cell fraction", "setting": "THZ531; 0.0001 µM", "result": -0.0007},
      {"measurement": "increase in dead-cell fraction", "setting": "THZ531; 0.0003162 µM", "result": 0.0017},
      {"measurement": "increase in dead-cell fraction", "setting": "THZ531; 0.001 µM", "result": -0.0005},
      {"measurement": "increase in dead-cell fraction", "setting": "THZ531; 0.003162 µM", "result": -0.0003},
      {"measurement": "increase in dead-cell fraction", "setting": "THZ531; 0.01 µM", "result": -0.0005},
      {"measurement": "increase in dead-cell fraction", "setting": "THZ531; 0.03162 µM", "result": 0.0015},
      {"measurement": "increase in dead-cell fraction", "setting": "THZ531; 0.1 µM", "result": 0.0054},
      {"measurement": "increase in dead-cell fraction", "setting": "THZ531; 0.3162 µM", "result": 0.0857},
      {"measurement": "increase in dead-cell fraction", "setting": "THZ531; 1 µM", "result": 0.311},
      {"measurement": "increase in dead-cell fraction", "setting": "THZ1; 0.0001 µM", "result": 0.0004},
      {"measurement": "increase in dead-cell fraction", "setting": "THZ1; 0.0003162 µM", "result": 0.0008},
      {"measurement": "increase in dead-cell fraction", "setting": "THZ1; 0.001 µM", "result": 0.0052},
      {"measurement": "increase in dead-cell fraction", "setting": "THZ1; 0.003162 µM", "result": 0.0023},
      {"measurement": "increase in dead-cell fraction", "setting": "THZ1; 0.01 µM", "result": 0.002},
      {"measurement": "increase in dead-cell fraction", "setting": "THZ1; 0.03162 µM", "result": 0.061},
      {"measurement": "increase in dead-cell fraction", "setting": "THZ1; 0.1 µM", "result": 0.093},
      {"measurement": "increase in dead-cell fraction", "setting": "THZ1; 0.3162 µM", "result": 0.137},
      {"measurement": "increase in dead-cell fraction", "setting": "THZ1; 1 µM", "result": 0.513},
      {"measurement": "increase in dead-cell fraction", "setting": "Flavopiridol; 0.0001 µM", "result": 0.0019},
      {"measurement": "increase in dead-cell fraction", "setting": "Flavopiridol; 0.0003162 µM", "result": -0.0012},
      {"measurement": "increase in dead-cell fraction", "setting": "Flavopiridol; 0.001 µM", "result": 0.0042},
      {"measurement": "increase in dead-cell fraction", "setting": "Flavopiridol; 0.003162 µM", "result": 0.0019},
      {"measurement": "increase in dead-cell fraction", "setting": "Flavopiridol; 0.01 µM", "result": -0.0015},
      {"measurement": "increase in dead-cell fraction", "setting": "Flavopiridol; 0.03162 µM", "result": 0},
      {"measurement": "increase in dead-cell fraction", "setting": "Flavopiridol; 0.1 µM", "result": 0.0003},
      {"measurement": "increase in dead-cell fraction", "setting": "Flavopiridol; 0.3162 µM", "result": 0.0166},
      {"measurement": "increase in dead-cell fraction", "setting": "Flavopiridol; 1 µM", "result": 0.392}
    ]}
  ]
}
